≈ marks a conversion by molar mass, not a printed value. Like-named read-outs stand apart in the source and are kept apart here.

In one assay the test system is pro MMP-9 protein. As to the kind of experiment: Inhibitory activity against proMMP-9 protein production (TNF α-stimulated mouse peritoneal exudate cells, ELISA). The class given is cell-based, C57BL/6J mice. The protocol:
(§1) To 7- to 9-week male C57BL/6J mice (purchased from CLEA Japan, Inc. or Japan SLC, Inc.), Zymosan A (SIGMA) derived from budding yeasts which is adjusted to be 1 mg/ml in a phosphate buffer solution (PBS, 10010-49, Invitrogen) was administered intraperitoneally at 1 ml per mouse to induce peritonitis. Three days later, filter-sterilized cell recovery buffer (2 mM EDTA, 0.5% bovine serum albumin, PBS, pH 7.4) was administered intraperitoneally at 5 ml per mouse to recover peritoneal exudata cells. The cells went through a cell strainer (70 μm nylon, FALCON) and were then washed twice with a Hanks solution (Invitrogen). The cells were suspended in 10% fetal calf serum-containing Dulbecco's modified Eagle's culture medium (Invitrogen). The suspension was seeded on a plate with 48 wells, after 6 hours, the culture medium was completely exchanged. After culturing for another 18 hours, test compounds were added at 0.02 to 20 μM of the final concentration. After 1 hour from the addition of the compounds, a tumor necrosis factor (TNF) α (R & D Systems) was added at 25 ng/ml of the final concentration, and 24 hours later, the culture supernatant was collected. The amount of pro MMP-9 protein in the supernatant was quantified by an enzyme-linked immunosorbent assay (ELISA) (R & D Systems), IC50 values of the test compounds on the increased amount by TNF α stimuli, were calculated by ORIGIN analysis software (trade name: OriginLab). In addition, minimal inhibitory concentration (MIC) of each test compounds (measured bacterium: Staphylococcus aureus ATCC29213) was measured. As a comparative agent […] A (clarithromycin) was used.

Assay [1] deals with Staphylococcus aureus ATCC29213. The assay can be described thus: Minimal inhibitory concentration (MIC). The class given is cell-based. The protocol:
as §1

Setting [2] is: relative activity when the value of Comparative Agent 1 (IC50 = 10.04 ± 4.11 μM) is 10, on the increase of pro MMP-9 by TNF α 25 ng/ml, 24 hours, read-out: IC50 (μM)*.

Turning to `CC[C@H]1OC(=O)[C@H](C)[C@@H](O[C@H]2C[C@@](C)(OC)[C@@H](OC(C)=O)[C@H](C)O2)[C@H](C)[C@@H](O[C@@H]2O[C@H](C)C[C@@H](N3CCCC(O)C3)[C@@H]2N(C)C)[C@@](C)(OC)C[C@@H](C)C(=O)[C@H](C)[C@@H](O)[C@]1(C)O` (mixture of isomers) [Example 196, 4″-O-acetyl-3′-dedimethylamino-2′-deoxy-2′-dimethylamino-3-((±)-3-hydroxypiperidin-1-yl)-6-O-methylerythromycin A], the IC50 with pro MMP-9 protein (setting [2]) stood at 2.51 µM. In assay [1], the MIC was over 128 µg/mL.

For the molecule `CC[C@H]1OC(=O)[C@H](C)[C@@H](O[C@H]2C[C@@](C)(OC)[C@@H](O)[C@H](C)O2)[C@H](C)[C@@H](O[C@@H]2O[C@H](C)C[C@H](N(C)C)[C@H]2O)[C@](C)(OC)C[C@@H](C)C(=O)[C@H](C)[C@@H](O)[C@]1(C)O` [Comparative Agent 1, 6-O-methylerythromycin A, reference compound], the IC50 in the assay with pro MMP-9 protein (actual value of Comparative Agent 1 (table footnote), not normalised, read-out: IC50) came out at 10 µM; with pro MMP-9 protein (setting [2]), 10 µM. Moreover, in assay [1], the minimal inhibitory concentration (MIC) turned out to be 0.25 µg/mL (≈ 0.334 µM).

As for `CC[C@H]1OC(=O)[C@H](C)[C@@H](O[C@H]2C[C@@](C)(OC)[C@@H](O)[C@H](C)O2)[C@H](C)[C@@H](O[C@@H]2O[C@H](C)C[C@H](N(C)C)[C@H]2OC)[C@@](C)(OC)C[C@@H](C)[C@H](N)[C@H](C)[C@@H](O)[C@]1(C)O` [Compound T of Example 142, 9-deoxo-9-(S)-amino-6,2′-di-O-methylerythromycin A], the IC50 in the assay with pro MMP-9 protein (setting [2]) was determined as 8.88 µM. For the same molecule, in assay [1], the MIC is over 128 µg/mL.

As for `CC[C@H]1OC(=O)[C@H](C)[C@@H](O[C@H]2C[C@@](C)(OC)[C@@H](OC(C)=O)[C@H](C)O2)[C@H](C)[C@@H](O[C@@H]2O[C@H](C)C[C@H](N(C)C)[C@H]2OC)[C@@](C)(OC)C[C@@H](C)[C@H](OC(=O)CCN(C)C)[C@H](C)[C@@H](O)[C@]1(C)O` [Compound V of Example 147, 4″-O-acetyl-9-deoxo-9-(S)-(3-dimethylaminopropionyloxy)-6,2′-di-O-methylerythromycin A], the IC50 in the assay with pro MMP-9 protein (setting [2]) is 2.61 µM. In assay [1], this molecule displayed an MIC of over 128 µg/mL.

Regarding `CC[C@H]1OC(=O)[C@H](C)[C@@H](O[C@H]2C[C@@](C)(OC)[C@@H](OC(C)=O)[C@H](C)O2)[C@H](C)[C@@H](O[C@@H]2O[C@H](C)C[C@H](N(C)C)[C@H]2OC)[C@@](C)(OC)C[C@@H](C)[C@H](OC(=O)CCN(C)C)[C@H](C)[C@@H](OC(=O)CCN(C)C)[C@]1(C)O` [Compound W of Example 147, 4″-O-acetyl-9-deoxo-9-(S)-(3-dimethylaminopropionyloxy)-11-O-(3-dimethylaminopropionyl)-6,2′-di-O-methylerythromycin A], the concentration for half-maximal inhibition (IC50) in the assay with pro MMP-9 protein (setting [2]) was found to be 6.56 µM. Further, in assay [1], the MIC was over 128 µg/mL.

`CC[C@H]1OC(=O)[C@H](C)[C@@H](O[C@H]2C[C@@](C)(OC)[C@@H](OC(C)=O)[C@H](C)O2)[C@H](C)[C@@H](O[C@@H]2O[C@H](C)C[C@@H](N3CC[C@H](O)C3)[C@@H]2N(C)C)[C@@](C)(OC)C[C@@H](C)C(=O)[C@H](C)[C@@H](O)[C@]1(C)O` [Compound X of Example 200, 4″-O-acetyl-3′-dedimethylamino-2′-deoxy-2′-dimethylamino-3′-((S)-3-hydroxypyrrolidin-1-yl)-6-O-methylerythromycin A]: in the assay with pro MMP-9 protein (setting [2]), the IC50 is 2.03 µM. The molecule further displayed an MIC in assay [1] of over 128 µg/mL.

For `CC[C@H]1OC(=O)[C@H](C)[C@@H](O[C@H]2C[C@@](C)(OC)[C@@H](OC(C)=O)[C@H](C)O2)[C@H](C)[C@@H](O[C@@H]2O[C@H](C)C[C@@H](N3CC[C@@H](O)C3)[C@@H]2N(C)C)[C@@](C)(OC)C[C@@H](C)C(=O)[C@H](C)[C@@H](O)[C@]1(C)O` [Compound Y of Example 200, 4″-O-acetyl-3′-dedimethylamino-2′-deoxy-2′-dimethylamino-3′-((R)-3-hydroxypyrrolidin-1-yl)-6-O-methylerythromycin A], in the assay on pro MMP-9 protein (setting [2]), the IC50 worked out at 3.02 µM. The molecule further showed an MIC in assay [1] of over 128 µg/mL.

Take `CC[C@H]1OC(=O)[C@H](C)[C@@H](O)[C@H](C)[C@@H](O[C@@H]2O[C@H](C)C[C@H](N(C)Cc3ccccc3)[C@H]2O)[C@@](C)(O)C[C@@H](C)CN(C)[C@H](C)[C@@H](O)[C@]1(C)O` [Example 20, 5-O-(3′-N-demethyl-3′-N-benzyl)desosaminyl-9-deoxo-9a-aza-9a-methyl-9a-homoerythronolide A]: in the assay on pro MMP-9 protein (setting [2]), the IC50 was determined as 0.83 µM. For the same molecule, the MIC in assay [1] is over 128 µg/mL.

For `CC[C@H]1OC(=O)[C@H](C)[C@@H](O[C@H]2C[C@@](C)(OC)[C@@H](O)[C@H](C)O2)[C@H](C)[C@@H](O[C@@H]2O[C@H](C)C[C@H](N(C)C)[C@H]2OCCCc2ccccc2)[C@@](C)(OC)C[C@@H](C)C(=O)[C@H](C)[C@@H](O)[C@]1(C)O` [Example 24, 2′-O-(3-phenylpropyl)-6-O-methylerythromycin A], the IC50 with pro MMP-9 protein (setting [2]) stood at 0.38 µM. This molecule registered a minimum inhibitory concentration (MIC) in assay [1] of over 64 µg/mL.

As to `CC[C@H]1OC(=O)[C@H](C)[C@@H](O[C@H]2C[C@@](C)(OC)[C@@H](O)[C@H](C)O2)[C@H](C)[C@@H](O[C@@H]2O[C@H](C)C[C@H](N(C)C)[C@H]2OC)[C@@](C)(OC)C[C@@H](C)C(=O)[C@H](C)[C@@H](O)[C@]1(C)O` [Example 31, 6,2′-di-O-methylerythromycin A], the IC50 with pro MMP-9 protein (setting [2]) came out at 4.08 µM. The same molecule displayed a minimal inhibitory concentration (MIC) in assay [1] of over 128 µg/mL.

For `CC[C@H]1OC(=O)[C@H](C)[C@@H](O)[C@H](C)[C@@H](O[C@@H]2O[C@H](C)C[C@H](N(C)Cc3cccc(OC)c3)[C@H]2O)[C@@](C)(OC)C[C@@H](C)C(=O)[C@H](C)[C@H]2NC(=O)O[C@@]21C` [Example 65, 11-amino-11-deoxy-5-O-(3′-N-demethyl-3′-N-(3-methoxybenzyl)desosaminyl)-6-O-methylerythronolide A 11,12-cyclic carbamate], in the assay on pro MMP-9 protein (setting [2]), the half-maximal inhibitory concentration (IC50) worked out at 1.37 µM.

Regarding `CC[C@H]1OC(=O)[C@H](C)[C@@H](O[C@H]2C[C@@](C)(OC)[C@@H](O)[C@H](C)O2)[C@H](C)[C@@H](O[C@@H]2O[C@H](C)C[C@@H](N3CCN(C)CC3)[C@@H]2N(C)C)[C@@](C)(OC)C[C@@H](C)C(=O)[C@H](C)[C@H]2NC(=O)O[C@@]21C` [Example 89, 11-amino-3′-dedimethylamino-11,2′-dideoxy-2′-dimethylamino-3′-(4-methylpiperazin-1-yl)-6-O-methylerythromycin A 11,12-cyclic carbamate], the IC50 in the assay with pro MMP-9 protein (setting [2]) came to 1.59 µM. The molecule also gave an MIC in assay [1] of over 128 µg/mL.

As to `CC[C@H]1OC(=O)[C@H](C)[C@@H](O[C@H]2C[C@@](C)(OC)[C@@H](OC(C)=O)[C@H](C)O2)[C@H](C)[C@@H](O[C@@H]2O[C@H](C)C[C@@H](N3CCOCC3)[C@@H]2N(C)C)[C@@](C)(OC)C[C@@H](C)C(=O)[C@H](C)[C@H]2NC(=O)O[C@@]21C` [Example 95, 4″-O-acetyl-11-amino-3′-dedimethylamino-11,2′-dideoxy-2′-dimethylamino-3′-(4-morpholino)-6-O-methylerythromycin A 11,12-cyclic carbamate], the IC50 in the assay with pro MMP-9 protein (setting [2]) was determined as 4.36 µM. The molecule also showed an MIC in assay [1] of over 128 µg/mL.

Turning to `CC[C@H]1OC(=O)[C@H](C)[C@@H](O[C@H]2C[C@@](C)(OC)[C@@H](O)[C@H](C)O2)[C@H](C)[C@@H](O[C@@H]2O[C@H](C)C[C@@H](N3CCCCC3)[C@@H]2N(C)C)[C@@](C)(OC)C[C@@H](C)C(=O)[C@H](C)[C@@H](O)[C@]1(C)O` [Example 101, 3′-dedimethylamino-2′-deoxy-2′-dimethylamino-3′-(1-piperidino)-6-O-methylerythromycin A], in the assay on pro MMP-9 protein (setting [2]), the IC50 stood at 0.62 µM. In assay [1], this molecule returned an MIC of over 128 µg/mL.

Regarding `CC[C@H]1OC(=O)[C@H](C)[C@@H](O[C@H]2C[C@@H](C)[C@H](O)[C@](C)(OC)O2)[C@H](C)[C@@H](O[C@@H]2O[C@H](C)C[C@H](N(C)CCN(C)C)[C@H]2OC)[C@@](C)(OC)C[C@@H](C)C(=O)[C@H](C)[C@@H](O)[C@]1(C)O` [Example 104, 3′-N-demethyl-3′-N-(2-dimethylaminoethyl)-6,2′-di-O-methylerythromycin A], the IC50 in the assay on pro MMP-9 protein (setting [2]) was determined as 5 µM. Further, the MIC in assay [1] was over 128 µg/mL.

`CCO[C@H]1[C@H](O[C@@H]2[C@@H](C)[C@H](O[C@@H]3C[C@@](C)(OC)[C@@H](O)[C@H](C)O3)[C@@H](C)C(=O)O[C@H](CC)[C@@](C)(O)[C@H](O)[C@@H](C)C(=O)[C@H](C)C[C@]2(C)OC)O[C@H](C)C[C@@H]1N(C)C` [Example 105, 2′-O-ethyl-6-O-methylerythromycin A]: the IC50 in the assay with pro MMP-9 protein (setting [2]) is 4.38 µM. The MIC in assay [1] is over 128 µg/mL.

As for `CC[C@H]1OC(=O)[C@H](C)[C@@H](O[C@H]2C[C@@](C)(OC)[C@@H](O)[C@H](C)O2)[C@H](C)[C@@H](O[C@@H]2O[C@H](C)C[C@H](N(C)C)[C@H]2OCCCN(C)C)[C@@](C)(OC)C[C@@H](C)C(=O)[C@H](C)[C@@H](O)[C@]1(C)O` [Example 115, 2′-O-(3-dimethylaminopropyl)-6-O-methylerythromycin A], the IC50 with pro MMP-9 protein (setting [2]) was determined as 3.88 µM. For the same molecule, the MIC in assay [1] is over 128 µg/mL.

(Values after patent US8124744B2, “Macrolide derivatives” (Taisho Pharmaceutical Co., Ltd., priority 2006, dated 2012).)
